Results reported in patent US7786116B2, “2-amino-quinoline derivatives useful as inhibitors of β-secretase (BACE)” (Janssen Pharmaceutica N.V., priority 2008, dated 2010).

Biological target: human BACE-1 (Homo sapiens, UniProt P56817)
Test: in vitro BACE Assay-1 (CEREP, fluorogenic substrate)
Format: biochemical
Settings: for % Inh @ 1 μM / inhibition at 1 µM: test compound at 1 μM; for % Inh @ 10 μM / inhibition at 10 µM: test compound at 10 μM; for IC50: recombinant enzyme, pH 4.5, 60 min at 37° C.
Protocol: This assay was run by CEREP (Catalog Ref. 761-B, Referred to SOP No. 1C131; ERMOLIEFF, J., LOY, J. A., KOELSCH, G. and TANG, J., Proteolytic activation of recombinant pro-memapsin 2 (pro-BACE) studied with new fluorogenic substrates, Biochemistry, (2000) Vol. 39, p. 12450).
More specifically the assay, run at 50 μL in a 96 well plate, evaluated the effect of test compound on the activity of the human BACE-1 quantified by measuring the formation of Mca-S-E-V-N-L-NH2 from Mca-S-E-V-N-L-D-A-E-F-R-K(Dnp)-R—R—NH2, using a recombinant enzyme.
The test compound, reference compound or water (control) was added to a buffer containing 0.09 M sodium acetate (pH 4.5) and 0.25 μg BACE-1. Compound interference with the fluorimetric detection method due to autofluorescence was then checked by measurements at the wavelengths defined to evaluate the enzyme activity. Thereafter, the reaction was initiated by adding 7.5 μM of the substrate Mca-S-E-V-N-L-D-A-E-F-R-K(Dnp)-R—R—NH2 and the mixture was incubated for 60 min at 37° C. For control basal measurement, the substrate was omitted from the reaction mixture. Immediately after the incubation, the fluorescence intensity emitted by the reaction product Mca-S-E-V-N-L-NH2 was measured at λex=320 nm and λem=405 nm using a microplate reader (Ultra, Tecan). The standard inhibitory reference compound was OM99-2, which was tested in each experiment at several concentrations to obtain an inhibition curve from which its IC50 value was calculated.
Representative compounds of the present invention were tested in the assay as described above, with results as listed in Table 3, below.

Sequence of human BACE-1 (P56817 46-501): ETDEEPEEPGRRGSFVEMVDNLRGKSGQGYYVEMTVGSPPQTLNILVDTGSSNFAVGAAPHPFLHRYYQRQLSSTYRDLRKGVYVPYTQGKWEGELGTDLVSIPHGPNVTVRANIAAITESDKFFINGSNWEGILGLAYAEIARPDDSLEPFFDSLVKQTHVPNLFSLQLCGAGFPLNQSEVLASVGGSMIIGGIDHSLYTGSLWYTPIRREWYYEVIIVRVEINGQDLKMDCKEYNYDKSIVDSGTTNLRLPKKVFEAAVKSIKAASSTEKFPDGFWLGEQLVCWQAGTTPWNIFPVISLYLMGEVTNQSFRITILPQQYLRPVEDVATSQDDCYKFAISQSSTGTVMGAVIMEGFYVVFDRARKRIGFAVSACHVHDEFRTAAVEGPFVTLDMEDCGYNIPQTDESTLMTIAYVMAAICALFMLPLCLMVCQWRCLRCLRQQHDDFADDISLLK

CN(C(=O)CCC(c1cc2cc(-c3ccccc3F)ccc2nc1N)C1CCCCC1)C1CCCCC1 (single isomer, unassigned) [Compound 11]
% Inh @ 1 μM: 28%

Nc1nc2ccc(-c3ccccc3F)cc2cc1C(CCC(=O)NCCO)C1CCOCC1 (stereo not drawn) [Compound 1]
% Inh @ 10 μM: 34%

Nc1nc2ccc(-c3ccccc3F)cc2cc1C(CCC(=O)NCC1CC1)C1CCOCC1 (stereo not drawn) [Compound 2]
% Inh @ 10 μM: 59%

CN(CCCC(c1cc2cc(-c3ccccc3F)ccc2nc1N)C1CCOCC1)CC1CC1 (stereo not drawn) [Compound 3]
% Inh @ 10 μM: 35%

CN(CC1CC1)C(=O)CCC(c1cc2cc(-c3ccccc3F)ccc2nc1N)C1CCOCC1 (stereo not drawn) [Compound 4]
% Inh @ 10 μM: 71%

CC(C)(CO)CNCCCC(c1cc2cc(-c3ccccc3F)ccc2nc1N)C1CCOCC1 (stereo not drawn) [Compound 6]
IC50: > 5000 nM
inhibition at 10 µM: 43%

CC(C)(C)CCNC(=O)CCC(c1cc2cc(-c3ccccc3F)ccc2nc1N)C1CCOCC1 (stereo not drawn) [Compound 7]
IC50: 260 nM
inhibition at 10 µM: 83%

CC(C)(C)OCCNCCCC(c1cc2cc(-c3ccccc3F)ccc2nc1N)C1CCOCC1 (stereo not drawn) [Compound 10]
IC50: 830 nM
inhibition at 10 µM: 47%

Nc1nc2ccc(-c3ccccc3F)cc2cc1C(CCC(=O)NCC1CCCCC1)C1CCOCC1 (stereo not drawn) [Compound 12]
IC50: 350 nM
inhibition at 10 µM: 74.5%

CN(CCCC(c1cc2cc(-c3ccccc3F)ccc2nc1N)C1CCOCC1)CC1CCCCC1 (stereo not drawn) [Compound 13]
% Inh @ 10 μM: 77%

CC(C)(C)OCCNC(=O)CCC(c1cc2cc(-c3ccccc3F)ccc2nc1N)C1CCOCC1 (stereo not drawn) [Compound 15]
IC50: 540 nM
inhibition at 10 µM: 113%

COc1cc2nc(N)c(C(CCCNCCC(C)(C)C)C3CCOCC3)cc2cc1-c1ccccc1F (stereo not drawn) [Compound 16]
IC50: > 620 nM
inhibition at 10 µM: 88%

COc1cc2nc(N)c(C(CCn3cc(C(C)(C)C)nn3)C3CCOCC3)cc2cc1-c1ccccc1F (stereo not drawn) [Compound 17]
IC50: 1400 nM
inhibition at 10 µM: 73%

CN(CC1CCCCC1)C(=O)CCC(c1cc2cc(-c3ccccc3F)ccc2nc1N)C1CCOCC1 (stereo not drawn) [Compound 18]
% Inh @ 10 μM: 77%

COc1cc2nc(N)c(C(CCC(=O)NCCC(C)(C)C)C3CCOCC3)cc2cc1-c1ccccc1F (stereo not drawn) [Compound 19]
% Inh @ 10 μM: 14%

COc1ccccc1-c1cc2cc(C(CCn3cc(C(C)(C)C)nn3)C3CCOCC3)c(N)nc2cc1OC (stereo not drawn) [Compound 20]
IC50: 890 nM
inhibition at 10 µM: 92%

Nc1nc2ccc(-c3cccs3)cc2cc1C(CCC(=O)NC12CC3CC(CC(C3)C1)C2)C1CCOCC1 (stereo not drawn) [Compound 21]
IC50: 690 nM
inhibition at 1 µM: 87%

CCOc1cc2nc(N)c(C(CCn3cc(C(C)(C)C)nn3)C3CCOCC3)cc2cc1-c1ccccc1F (stereo not drawn) [Compound 22, 3-[3-(4-tert-Butyl-[1,2,3]triazol-1-yl)-1-(tetrahydro-pyran-4-yl)-propyl]-7-ethoxy-6-(2-fluoro-phenyl)-quinolin-2-ylamine]
IC50: 150 nM
inhibition at 10 µM: 65%

Nc1nc2ccc(-c3ccccc3F)cc2cc1C(CCC(=O)NC12CC3CC(CC(C3)C1)C2)C1CCOCC1 (stereo not drawn) [Compound 23]
IC50: 570 nM
inhibition at 1 µM: 97%

Cn1ccnc1CN(CCC(C)(C)C)C(=O)CCC(c1cc2cc(-c3ccc[nH]3)ccc2nc1N)C1CCOCC1 (stereo not drawn) [Compound 24]
IC50: 1400 nM
% Inh @ 10 μM: 93%

Cn1ccnc1CN(CCC(C)(C)C)C(=O)CCC(c1cc2cc(-c3ccccc3)ccc2nc1N)C1CCOCC1 (stereo not drawn) [Compound 25]
IC50: 320 nM
% Inh @ 10 μM: 72%

Cn1ccnc1N(CCC(C)(C)C)C(=O)CCC(c1cc2cc(-c3ccccn3)ccc2nc1N)C1CCOCC1 (stereo not drawn) [Compound 27]
IC50: 1800 nM
inhibition at 10 µM: 91%

CC(C)(C)CCN(CCCC(c1cc2cc(-c3ccccc3F)ccc2nc1N)C1CCOCC1)Cc1ccccn1 (stereo not drawn) [Compound 28]
IC50: 880 nM
inhibition at 10 µM: 74%

Cn1ccnc1CN(CCCC(c1cc2cc(-c3ccccc3F)ccc2nc1N)C1CCOCC1)CCC(C)(C)C (stereo not drawn) [Compound 29]
IC50: 1500 nM
% Inh @ 1 μM: 54%

Cn1ccnc1CN(CCC(C)(C)C)C(=O)CCC(c1cc2cc(-c3cccs3)ccc2nc1N)C1CCOCC1 (stereo not drawn) [Compound 31, 4-(2-Amino-6-thiophen-2-yl-quinolin-3-yl)-N-(3,3-dimethyl-butyl)-N-(1-methyl-1H-imidazol-2-ylmethyl)-4-(tetrahydro-pyran-4-yl)-butyramide]
IC50: 420 nM
inhibition at 1 µM: 79%
inhibition at 10 µM: 98%

CC(C)(C)CCN(Cc1ccccc1)C(=O)CCC(c1cc2cc(-c3ccccc3F)ccc2nc1N)C1CCOCC1 (stereo not drawn) [Compound 34]
IC50: 390 nM
inhibition at 10 µM: 68%

CC(C)(C)CCN(Cc1ccccn1)C(=O)CCC(c1cc2cc(-c3ccccc3F)ccc2nc1N)C1CCOCC1 (stereo not drawn) [Compound 35]
IC50: 330 nM
inhibition at 10 µM: 116%

COc1ccccc1-c1ccc2nc(N)c(C(CCCN(CCC(C)(C)C)c3nccn3C)C3CCOCC3)cc2c1 (stereo not drawn) [Compound 36]
IC50: 500 nM
inhibition at 1 µM: 76%

Cn1ccnc1CN(CCC(C)(C)C)C(=O)CCC(c1cc2cc(-c3ccc(F)cc3)ccc2nc1N)C1CCOCC1 (stereo not drawn) [Compound 37]
% Inh @ 10 μM: 82%

Cn1ccnc1N(CCC(C)(C)C)C(=O)CCC(c1cc2cc(-c3cccc(F)c3)ccc2nc1N)C1CCOCC1 (stereo not drawn) [Compound 38]
IC50: 470 nM
inhibition at 10 µM: 69%

Cn1ccnc1CN(CCC(C)(C)C)C(=O)CCC(c1cc2cc(-c3ccccc3F)ccc2nc1N)C1CCOCC1 (stereo not drawn) [Compound 39]
IC50: 350 nM
% Inh @ 1 μM: 93%

Nc1nc2ccc(-c3ccccc3F)cc2cc1C(CCC(=O)N(CCN1CCCC1)C1CCCCC1)C1CCOCC1 (stereo not drawn) [Compound 41]
IC50: 450 nM
inhibition at 10 µM: 65%

CC(C)(C)CCN(Cc1cncs1)C(=O)CCC(c1cc2cc(-c3ccccc3F)ccc2nc1N)C1CCOCC1 (stereo not drawn) [Compound 42]
IC50: 320 nM
inhibition at 10 µM: 65%

CC(C)(C)CCN(CCCC(c1cc2cc(-c3ccccc3F)ccc2nc1N)C1CCOCC1)CCN1CCOCC1 (stereo not drawn) [Compound 43, 3-[4-[(3,3-Dimethyl-butyl)-(2-morpholin-4-yl-ethyl)-amino]-1-(tetrahydro-pyran-4-yl)-butyl]-6-(2-fluoro-phenyl)-quinolin-2-ylamine]
inhibition at 10 µM: 78%

COc1ccccc1-c1ccc2nc(N)c(C(CCC(=O)N(CCC(C)(C)C)Cc3nccn3C)C3CCOCC3)cc2c1 (stereo not drawn) [Compound 45]
IC50: 530 nM
% Inh @ 1 μM: 94%

CC(C)(C)CCN(CCN1CCOCC1)C(=O)CCC(c1cc2cc(-c3ccccc3F)ccc2nc1N)C1CCOCC1 (stereo not drawn) [Compound 47, 4-[2-Amino-6-(2-fluoro-phenyl)-quinolin-3-yl]-N-(3,3-dimethyl-butyl)-N-(2-morpholin-4-yl-ethyl)-4-(tetrahydro-pyran-4-yl)-butyramide]
IC50: 370 nM
inhibition at 10 µM: 58%

Cn1ccnc1CN(CCC(C)(C)C)C(=O)CCC(c1cc2cc(-c3cccc4cc[nH]c34)ccc2nc1N)C1CCOCC1 (stereo not drawn) [Compound 49]
% Inh @ 10 μM: 99%

CCOc1ccc(-c2ccc3nc(N)c(C(CCC(=O)N(CCC(C)(C)C)Cc4nccn4C)C4CCOCC4)cc3c2)cc1 (stereo not drawn) [Compound 50]
% Inh @ 10 μM: 22%

CCOc1ccccc1-c1ccc2nc(N)c(C(CCC(=O)N(CCC(C)(C)C)Cc3nccn3C)C3CCOCC3)cc2c1 (stereo not drawn) [Compound 51, 4-[2-Amino-6-(2-ethoxy-phenyl)-quinolin-3-yl]-N-(3,3-dimethyl-butyl)-N-(1-methyl-1H-imidazol-2-ylmethyl)-4-(tetrahydro-pyran-4-yl)-butyramide]
IC50: 320 nM
inhibition at 10 µM: 99%

COc1cc2nc(N)c(C(CCCN(CCN3CCOCC3)C3CCCCC3)C3CCOCC3)cc2cc1-c1ccccc1F (stereo not drawn) [Compound 52]
IC50: 3600 nM
inhibition at 10 µM: 55%

COc1cc2nc(N)c(C(CCC(=O)N(CCN3CCOCC3)C3CCCCC3)C3CCOCC3)cc2cc1-c1ccccc1F (stereo not drawn) [Compound 53]
IC50: 2200 nM
inhibition at 10 µM: 55%

Cn1ccnc1CN(CCC(C)(C)C)C(=O)CCC(c1cc2cc(-c3cccc(C(F)(F)F)c3)ccc2nc1N)C1CCOCC1 (stereo not drawn) [Compound 54]
% Inh @ 10 μM: 8%

Cn1ccnc1CN(CCC(C)(C)C)C(=O)CCC(c1cc2cc(-c3ccccc3C(F)(F)F)ccc2nc1N)C1CCOCC1 (stereo not drawn) [Compound 55]
IC50: 2400 nM
% Inh @ 10 μM: 90%

Cn1ccnc1CN(CCC(C)(C)C)C(=O)CCC(c1cc2cc(-c3ccccc3OC(F)(F)F)ccc2nc1N)C1CCOCC1 (stereo not drawn) [Compound 56]
% Inh @ 10 μM: 73%
